These results are taken from patent publication US20040053966A1, “Chemical derivatives and their application as antitelomerase agent” (Aventis Pharms S.A., priority 1999, published 2004).

Molecules are shown by their SMILES.

The subject of experiment [1] is G-quadruplex of oligonucleotide GGGTTAGGGTTAGGGTTAGGG (3.5 repeats of the human telomeric motif). Put plainly: G-quadruplex stabilizing activity, fluorescence Tm (FAM+DABCYL oligonucleotide). It is filed as binding. Conditions: test product 1 μM, oligonucleotide 0.2 μM, 0.1 M LiCl, 10 mM cacodylate pH 7.6; reference without product 44° C. From the text:
The G-quadruplex stabilizing activity may be determined by a method using the formation of a complex with fluorescein of which the experimental protocol is described below. Oligonucleotides […] The oligonucleotide FAM+DABCYL carries the catalogue reference OL-0371-0802. It has the sequence: […] The fluorescein is attached to the 5' end, the DABCYL to the 3' end, by the chemical arms described by Eurogentec. The concentration of the samples is checked by spectrophotometry, recording the absorbance spectrum between 220 and 700 nm and using the molar extinction coefficient provided by the supplier. Buffers All the experiments were carried out in a 10 mM sodium cacodylate buffer pH 7.6 containing 0.1 M lithium chloride (or sodium chloride). The absence of fluorescent contamination in the buffer was checked beforehand. The fluorescent oligonucleotide is added at the final concentration of 0.2 μM. Study of Fluorescence All the measurements of fluorescence were carried out on a Spex Fluorolog DMlB apparatus, using an excitation line width of 1.8 nm and an emission line width of 4.5 nm. The samples are placed in a microquartz cuvette of 0.2×1 cm. The temperature of the sample is controlled by an external water bath. The oligonucleotide alone was analysed at 20, 30, 40, 50, 60, 70 and 80° C. The emission spectra are recorded using an excitation wavelength of 470 nm. The excitation spectra are recorded using either 515 nm or 588 nm as emission wavelength. The spectra are corrected for the response of the instrument by reference curves. A high extinction (80-90%) of the fluorescence of fluorescein at room temperature is observed, in agreement with an intramolecular folding of the oligonucleotide at 20° C. in the form of a G-quadruplex, which induces juxtaposition of its [NT] ends which are respectively linked to fluorescein and to DABCYL. This juxtaposition causes an already-described phenomenon of extinction of fluorescence which is used for “molecular beacons”. Fluorescence Tm: […] The samples are then allowed to incubate for at least 1 hour at 20° C. before each measurement. The use of longer incubation times (up to 24 hours) has no influence on the result obtained. Each experiment allows the measurement of only one sample. The latter is first incubated at an initial temperature of 20° C., heated to 80° C. over 38 minutes, left for 5 minutes at 80° C. and then cooled to 20° C. over 62 minutes. During this time, the fluorescence is measured simultaneously at two emission wavelengths (515 nm and 588 nm) using 470 nm as excitation wavelength. A measurement is carried out every 30 seconds. The temperature of the water bath is recorded in parallel, and the fluorescence profile as a function of the temperature is reconstituted from these values. The fluorescence profiles are then normalized between 20° C. and 80° C., and the temperature for which the intensity of emission at 515 nm is the mean of those at high and low temperature is called Tm. Under these conditions, the Tm of the reference sample without addition of product is 44° C. in a lithium chloride buffer. This temperature is increased to more than 55° C. in a sodium chloride buffer. The addition of a G-quadruplex-stabilizing compound induces an increase in the Tm. This increase is judged to be significant if it is greater than […].

Experiment [2] relates to human telomerase (HL60 cell extract). Put plainly: Antitelomerase activity, TRAP (extension of oligonucleotide TS and PCR amplification). Format: biochemical. Conditions: telomerase extract from HL60 cells.
In experiment [3] the test system is A549 cells. The experiment can be described thus: Cytotoxic activity on human tumour line A549 (neutral red). Particulars: Homo sapiens, A549, 96 h, 96 hours incubation, read-out: Cytotox. A549 IC50. It is filed as cell-based. On the procedure: The Cytotoxic Biological Activity on Human Tumour Lines is Determined According to the Following Experimental Protocol:
The cells at the exponential growth phase are trypsinized, washed in 1× PBS and are inoculated in 96-well microplates (Costar) in an amount of 4×10^4 cells/ml for A549 and of 1.5×10^4 cells/ml (0.2 ml/well) and then incubated for 96 hours in the presence of variable concentrations of product to be studied (10, 1, 0.1 and 0.01 μg/ml, each point in quadruplicate). 16 hours before the end of the incubation, 0.02% final of neutral red is added to each well. At the end of the incubation, the cells are washed with 1× PBS and lysed with 1% sodium lauryl sulphate. The cellular incorporation of the dye, which reflects cellular growth, is evaluated by spectrophotometry at a wavelength of 540 nm for each sample with the aid of a Dynatech MR5000 reading apparatus.
(compound value−blank value/cell control value−blank value)×100.

For the molecule `CSc1nc(Nc2ccc3nc(C)cc(N)c3c2)nc(Nc2ccc3nc(C)cc(N(C)C)c3c2)n1` [Example 18-3], the “G4 Tm” value in experiment [1] came out at 57 °C. Further, the figures for the IC50 in experiment [2] and in experiment [3] were 0.34 µM and 10 µM, respectively.

Turning to `CSc1nc(Nc2ccc(C#N)cc2)nc(Nc2ccc3nc(C)cc(N)c3c2)n1` [Example 18-7], the “G4 Tm” value in experiment [1] came out at 51 °C. Besides, the values for the IC50 in experiment [2] and in experiment [3] were 3.3 µM and 8 µM, respectively.

Regarding `COc1ccc2nccc(Nc3nc(Nc4ccc5nc(C)cc(N)c5c4)nc(SC)n3)c2c1` [Example 18-9], the “G4 Tm” value in experiment [1] is 51 °C. For the same molecule, the IC50 in experiment [2] came to 3.4 µM; in experiment [3] it was 9.5 µM.

Consider `CSc1nc(Nc2ccc3nc[nH]c3c2)nc(Nc2ccc3nc(C)cc(N)c3c2)n1` [Example 18-10], for which the “G4 Tm” value in experiment [1] worked out at 49 °C. Further, the IC50 in experiment [2] was found to be 3.3 µM; in experiment [3], 10 µM.

Consider `CCn1c2ccccc2c2cc(Nc3nc(Nc4ccc5nc(C)cc(N)c5c4)nc(SC)n3)ccc21` [Example 18-11], for which the “G4 Tm” value in experiment [1] is 48 °C. Moreover, the IC50 in experiment [2] was 3.3 µM; in experiment [3] it was 1.3 µM.

As to `CCN(CC)c1nc(Nc2ccc3ncccc3c2)nc(Nc2ccc3nc(C)cc(N)c3c2)n1` [Example 19-1], the “G4 Tm” value in experiment [1] came out at 58 °C. Besides, the IC50 in experiment [2] is 1 µM; in experiment [3], 1.5 µM.
